# In US8450479B2, “3-substituted-4-oxo-3,4-dihydro-imidazo[5,1-d][1,2,3,5-tetrazine-8-carboxylic acid amides and their use” (Pharminox Limited, priority 2007, dated 2013):
# Values joined by “and” are separate entries in the source; they are usually repeats but may differ in a detail not shown here. Identical values can stand only once. Like-named read-outs stand apart in the source and are kept apart here.
# Columns and labels:
# Format in all cases: cell-based
# Glioma SNB19M (MGMT+) [1] = assay: MTT assay for 7-day toxicity assay
# Outline: (§1)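 MGMT-transfected or vector-control glioma cells were seeded at 650 cells/well, attached overnight, and exposed for 7 days at 37 °C to compound at final 0.5–1000 μM. Viability was read by MTT (0.4 mg/mL, 4 h) formazan absorbance, with a day-0 plate included.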
# Glioma SNB19V (MGMT−) [2] = assay: MTT assay for 7-day toxicity assay
# Outline: as §1
# Glioma U373M (MGMT+) = assay: MTT assay for 7-day toxicity assay
# Outline: as §1
# Glioma U373V (MGMT low) = assay: MTT assay for 7-day toxicity assay
# Outline: as §1
# Glioma SNB19M (MGMT+) [3] = assay: Clonogenic survival assay (Table 14, assay not named there)
# Experimental: (§2) A clonogenic assay, which measures tumour cell survival and subsequent proliferative ability following drug exposure was used to verify that the cells remaining metabolically active following treatment with TMZ and new derivatives. See, e.g., Brown, J. M., et al., 1999, “Apoptosis, p53, and tumor cell sensitivity to anticancer agents”, Cancer Research, Vol. 59, No. 7, pp. 1391-1399.
# (§3) Exponentially growing cells were seeded in triplicate at a density of 200 cells/well in 6 well plate and allowed to attach overnight and then exposed to increasing concentration of TMZ and test compounds (0, 5, 10, 100, 500, 1000 μM). After 18 hours, the plates were changed to drug free media and left to grow in the 37° C., 5% CO2 incubator. After 14 days, the plates were rinsed in PBS and fixed with pre-chilled methanol in room temperature for 20 minutes, and then stained with 0.5% methylene blue in 1:1 methanol/H2O (v/v) for 10 minutes and thoroughly washed in distilled water and air dried. Cell colonies containing >30 cells were counted. Growth inhibition by TMZ and test compounds was estimated by dividing the mean number of colonies under drug treatment by the mean number of colonies without drug treatment.
# Glioma SNB19V (MGMT−) [4] = assay: as above
# Experimental: as §2, §3
# [5] = 168 h, Glioma SNB19M (MGMT+), 7-day MTT, single determinations
# [6] = Glioma SNB19V (MGMT−), 7-day MTT, single determinations
# [7] = 168 h, Glioma SNB19M (MGMT+), 7-day MTT, single determinations, read-out: GI50
# [8] = Glioma SNB19M (MGMT+), 7-day MTT, single determinations, read-out: GI50
# [9] = 168 h, Glioma U373M (MGMT+), 7-day MTT, single determinations, read-out: GI50
# [10] = Glioma U373M (MGMT+), 7-day MTT, single determinations, read-out: GI50
# [11] = Glioma SNB19M (MGMT+), read-out: GI50
# [12] = Glioma U373M (MGMT+), read-out: GI50
# [13] = Glioma U373V (MGMT low), read-out: GI50
# [14] = Glioma SNB19V (MGMT−), read-out: GI50
smiles,measurement,setting,value
"C[C@H](c1ccccc1)n1nnc2c(C(N)=O)ncn2c1=O [BB-001, (R)-3-(-1-Phenylethyl)-8-carbamoylimidazotetrazin-4-one]",GI50,Glioma SNB19M (MGMT+) [1]; [5],46.1 µM
same,GI50,"Glioma SNB19M (MGMT+) [1]; Glioma SNB19M (MGMT+), 7-day MTT, single determinations",53.4 µM
same,GI50,"Glioma SNB19V (MGMT−) [2]; 168 h, Glioma SNB19V (MGMT−), 7-day MTT, single determinations",33.6 µM
same,GI50,Glioma SNB19V (MGMT−) [2]; [6],31.8 µM
same,GI50,"Glioma U373M (MGMT+); 168 h, Glioma U373M (MGMT+), 7-day MTT, single determinations",67.1 µM
same,GI50,"Glioma U373M (MGMT+); Glioma U373M (MGMT+), 7-day MTT, single determinations",79.6 µM
same,GI50,"Glioma U373V (MGMT low); 168 h, Glioma U373V (MGMT low), 7-day MTT, single determinations",49 µM
same,GI50,"Glioma U373V (MGMT low); Glioma U373V (MGMT low), 7-day MTT, single determinations",71.3 µM
same,GI50,Glioma SNB19M (MGMT+) [3],8.5 µM
same,GI50,Glioma SNB19V (MGMT−) [4],22.2 µM
"C#CCn1nnc2c(C(N)=O)ncn2c1=O [EE-001, 3-Propargyl-8-carbamoylimidazotetrazin-4-one]",GI50,Glioma SNB19M (MGMT+) [1]; [7],26.9 µM
same,GI50,Glioma SNB19M (MGMT+) [1]; [8],30.6 µM and 41.6 µM and 52.1 µM
same,GI50,Glioma U373M (MGMT+); [9],45.1 µM
same,GI50,Glioma U373M (MGMT+); [10],42.8 µM and 24.6 µM and 31.7 µM
same,GI50,Glioma SNB19M (MGMT+) [3],7.8 µM
same,GI50,Glioma SNB19V (MGMT−) [4],7 µM
CCOC(=O)Cn1nnc2c(C(N)=O)ncn2c1=O [PX-016],GI50,Glioma SNB19M (MGMT+) [1]; [7],66.7 µM
same,GI50,Glioma SNB19M (MGMT+) [1]; [8],54 µM and 61.7 µM and 61.8 µM
same,GI50,"Glioma SNB19V (MGMT−) [2]; 168 h, Glioma SNB19V (MGMT−), 7-day MTT, single determinations, read-out: GI50",55.2 µM
same,GI50,"Glioma SNB19V (MGMT−) [2]; Glioma SNB19V (MGMT−), 7-day MTT, single determinations, read-out: GI50",48.7 µM and 57.3 µM and 48.4 µM
same,GI50,Glioma U373M (MGMT+); [9],49.6 µM
same,GI50,Glioma U373M (MGMT+); [10],62.5 µM and 54.7 µM
same,GI50,"Glioma U373V (MGMT low); 168 h, Glioma U373V (MGMT low), 7-day MTT, single determinations, read-out: GI50",49.9 µM
same,GI50,"Glioma U373V (MGMT low); Glioma U373V (MGMT low), 7-day MTT, single determinations, read-out: GI50",59.6 µM and 73.8 µM and 69.5 µM
COCn1nnc2c(C(N)=O)ncn2c1=O [PX-020],GI50,Glioma SNB19M (MGMT+) [1]; [11],28.7 µM and 26.6 µM and 43.4 µM
same,GI50,Glioma U373M (MGMT+); [12],26.5 µM and 39.6 µM
same,GI50,Glioma U373V (MGMT low); [13],21.3 µM and 22 µM and 30.2 µM and 30.4 µM
same,GI50,Glioma SNB19M (MGMT+) [3],30 µM
same,GI50,Glioma SNB19V (MGMT−) [4],38.6 µM
C[Si](C)(C)CCOCn1nnc2c(C(N)=O)ncn2c1=O [PX-021],GI50,Glioma SNB19M (MGMT+) [1]; [11],26.7 µM and 29.1 µM
same,GI50,Glioma SNB19V (MGMT−) [2]; [14],36 µM and 26.9 µM and 26.8 µM
same,GI50,Glioma U373M (MGMT+); [12],27.2 µM and 23.6 µM and 21.9 µM
same,GI50,Glioma U373V (MGMT low); [13],28.2 µM and 22.3 µM and 25.5 µM
same,GI50,Glioma SNB19M (MGMT+) [3],22.1 µM
same,GI50,Glioma SNB19V (MGMT−) [4],43.3 µM
NC(=O)c1ncn2c(=O)n(CCl)nnc12 [PX-030],GI50,Glioma SNB19M (MGMT+) [1]; [11],36.6 µM and 25.4 µM
same,GI50,Glioma SNB19V (MGMT−) [2]; [14],44.6 µM and 24.6 µM
same,GI50,Glioma U373M (MGMT+); [12],23.7 µM and 25.1 µM
same,GI50,Glioma U373V (MGMT low); [13],34.8 µM and 23.8 µM
same,GI50,Glioma SNB19M (MGMT+) [3],31.5 µM
same,GI50,Glioma SNB19V (MGMT−) [4],38.9 µM
"Cn1nnc2c(C(N)=O)ncn2c1=O [TMZ, 3-Methyl-4-oxo-3,4-dihydro-imidazo[5,1-d][1,2,3,5]tetrazine-8-carboxylic acid amide, reference compound]",GI50,Glioma SNB19M (MGMT+) [1]; [5],464 µM
same,GI50,Glioma SNB19M (MGMT+) [1]; Glioma SNB19M (MGMT+),470 µM
same,GI50,"Glioma SNB19M (MGMT+) [1]; read-out: TMZ GI50 Average, Glioma SNB19M (MGMT+), average of Table 1",470 µM
same,GI50,Glioma SNB19V (MGMT−) [2]; Glioma SNB19V (MGMT−),35.7 µM
same,GI50,Glioma SNB19V (MGMT−) [2]; [6],27.6 µM
same,GI50,"Glioma SNB19V (MGMT−) [2]; read-out: TMZ GI50 Average, Glioma SNB19V (MGMT−), average of Table 1",35.7 µM
same,GI50,Glioma U373M (MGMT+); Glioma U373M (MGMT+),369 µM
same,GI50,"Glioma U373M (MGMT+); read-out: TMZ GI50 Average, Glioma U373M (MGMT+), average of Table 1",369 µM
same,GI50,Glioma U373V (MGMT low); Glioma U373V (MGMT low),68 µM
same,GI50,"Glioma U373V (MGMT low); read-out: TMZ GI50 Average, Glioma U373V (MGMT low), average of Table 1",68 µM
same,GI50,Glioma SNB19M (MGMT+) [3],875 µM
same,GI50,Glioma SNB19M (MGMT+) [3]; listed as Temozolomide,834 µM
same,GI50,Glioma SNB19V (MGMT−) [4],32.2 µM
"C[S+]([O-])Cn1nnc2c(C(N)=O)ncn2c1=O (centres unmarked) [UU-003, 3-Methanesulfinylmethyl-4-oxo-3,4-dihydro-imidazo[5,1-d][1,2,3,5]tetrazine-8-carboxylic acid amide]",GI50,Glioma SNB19V (MGMT−) [2]; [14],30.3 µM and 38.1 µM and 25.3 µM and 21.8 µM
same,GI50,Glioma U373M (MGMT+); [12],4.6 µM and 8.6 µM and 7.6 µM and 8.2 µM
